Data set [1] has as its target interaction between chemokine and a chemokine receptor (Homo sapiens, UniProt P51681). Description: antagonistic activity against the interaction between chemokine and a chemokine receptor (method described in WO 01/40227). To be noted: compared with the amorphous substance produced by the method of WO 02/074770. In kind it is biochemical.
Another data set deals with rats. To be noted: rat, in vivo, 2000 mg/kg. The procedure:
Thus, the inventive compound is determined as sufficiently safe for medical use.

interaction between chemokine and a chemokine receptor, sequence (P51681 whole entry): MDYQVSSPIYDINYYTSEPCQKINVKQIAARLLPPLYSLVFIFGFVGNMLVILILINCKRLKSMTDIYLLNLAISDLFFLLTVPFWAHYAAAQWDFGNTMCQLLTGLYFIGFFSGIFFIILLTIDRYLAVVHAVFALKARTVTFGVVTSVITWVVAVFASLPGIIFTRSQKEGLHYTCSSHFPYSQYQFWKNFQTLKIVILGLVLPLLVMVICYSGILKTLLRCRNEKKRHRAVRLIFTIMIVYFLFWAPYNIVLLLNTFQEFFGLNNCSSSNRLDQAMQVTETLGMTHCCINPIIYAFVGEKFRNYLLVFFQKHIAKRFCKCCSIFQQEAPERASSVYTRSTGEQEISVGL

`CCCCN1C(=O)[C@@H]([C@H](O)C2CCCCC2)NC(=O)C12CCN(Cc1ccc(Oc3ccc(C(=O)O)cc3)cc1)CC2.Cl` [Crystal A, (3R)-1-butyl-2,5-dioxo-3-[(1R)-1-hydroxy-1-cyclohexylmethyl]-9-[4-(4-carboxyphenyloxy)phenylmethyl]-1,4,9-triazaspiro[5.5]undecane Hydrochloride]: the “antagonistic activity against the interaction between chemokine and a chemokine receptor” value in data set [1] is recorded as “almost the same level as that of the amorphous substance”. For the same compound, the toxicity entry in the data set with rats was “never showed distinct toxicity”.

The record behind these values is patent US7361758B2, “Crystals of triazaspiro[5.5]undecane derivative” (Ono Pharmaceutical Co., Ltd., priority 2002, dated 2008).
